# Measurements reported in ChEMBL document CHEMBL1138996, “Biological evaluation of isothiazoloquinolones containing aromatic heterocycles at the 7-position: In vitro activity of a series of potent antibacterial agents that are effective against methicillin-resistant Staphylococcus aureus” (Bioorg Med Chem Lett, 2006).
# Columns and labels:
# Staphylococcus aureus [1] = experiment: Antibacterial activity against methicillin-resistant Staphylococcus aureus ATCC 700699; format: functional
# Escherichia coli = experiment: Antibacterial activity against Escherichia coli ATCC 25922; format: functional
# HEp-2 = experiment: Cytotoxicity against Hep2 cell line; format: functional; conditions: Homo sapiens
# Staphylococcus aureus [2] = experiment: Antibacterial activity against Staphylococcus aureus ATCC 29213; format: functional
# [3] = target: DNA topoisomerase 4 subunit A (Staphylococcus aureus, UniProt P0C1U9); experiment: Inhibitory activity against Staphylococcus aureus ATCC 29213 wild type Topo 4
# Streptococcus pyogenes = experiment: Antibacterial activity against Streptococcus pyogenes ATCC 19615; format: functional
# Moraxella catarrhalis = experiment: Antibacterial activity against Moraxella catarrhalis ATCC 8176; format: functional
# Enterococcus faecium = experiment: Antibacterial activity against Enterococcus faecium ATCC 49032; format: functional
# Enterococcus faecalis = experiment: Antibacterial activity against Enterococcus faecalis ATCC 29212; format: functional
# Streptococcus pneumoniae = experiment: Antibacterial activity against Streptococcus pneumoniae ATCC 49619; format: functional
# Haemophilus influenzae = experiment: Antibacterial activity against Haemophilus influenzae type b ACH-0056; format: functional
# Klebsiella pneumoniae = experiment: Antibacterial activity against Klebsiella pneumoniae ATCC 13883; format: functional
# [4] = system: Stenotrophomonas maltophilia; experiment: Antibacterial activity against Stenotrophomonas maltophilia ATCC 13637; format: functional
# Salmonella typhimurium = experiment: Antibacterial activity against Salmonella Typhimurium ATCC 14028; format: functional, Salmonella enterica subsp. enterica serovar Typhimurium; conditions: Salmonella enterica
# Pseudomonas aeruginosa = experiment: Antibacterial activity against Pseudomonas aeruginosa ATCC 27853; format: functional
# Sequence of DNA topoisomerase 4 subunit A (P0C1U9 whole entry): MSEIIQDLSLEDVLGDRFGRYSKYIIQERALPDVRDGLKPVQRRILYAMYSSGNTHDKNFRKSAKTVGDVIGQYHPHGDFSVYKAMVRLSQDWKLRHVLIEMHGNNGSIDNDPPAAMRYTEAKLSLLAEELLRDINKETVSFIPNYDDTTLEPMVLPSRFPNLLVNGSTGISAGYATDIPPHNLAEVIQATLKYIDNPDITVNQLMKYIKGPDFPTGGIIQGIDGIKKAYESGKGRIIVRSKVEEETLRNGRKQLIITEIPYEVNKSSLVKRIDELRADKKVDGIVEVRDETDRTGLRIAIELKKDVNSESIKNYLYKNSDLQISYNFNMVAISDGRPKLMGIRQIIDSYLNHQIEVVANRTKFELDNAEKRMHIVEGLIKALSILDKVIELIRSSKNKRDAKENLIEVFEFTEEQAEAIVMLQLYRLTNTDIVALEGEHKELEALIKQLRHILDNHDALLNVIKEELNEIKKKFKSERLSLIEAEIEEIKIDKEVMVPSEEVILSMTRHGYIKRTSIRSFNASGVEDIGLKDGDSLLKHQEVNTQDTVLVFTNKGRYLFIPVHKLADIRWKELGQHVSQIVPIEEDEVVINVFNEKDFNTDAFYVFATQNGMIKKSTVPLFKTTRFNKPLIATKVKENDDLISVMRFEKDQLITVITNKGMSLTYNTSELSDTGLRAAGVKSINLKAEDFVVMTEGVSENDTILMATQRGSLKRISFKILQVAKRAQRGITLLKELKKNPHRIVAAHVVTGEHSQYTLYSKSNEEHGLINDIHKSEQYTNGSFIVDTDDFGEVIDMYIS
Compound,MIC (Staphylococcus aureus [1]),MIC (Escherichia coli),CC50 (HEp-2),MIC (Staphylococcus aureus [2]),IC50 [3],MIC (Streptococcus pyogenes),MIC (Moraxella catarrhalis),MIC (Enterococcus faecium),MIC (Enterococcus faecalis),MIC (Streptococcus pneumoniae),MIC (Haemophilus influenzae),MIC (Klebsiella pneumoniae),MIC [4],MIC (Salmonella typhimurium),MIC (Pseudomonas aeruginosa)
NCc1ccc(-c2cc3c(cc2F)c(=O)c2c(=O)[nH]sc2n3C2CC2)cn1,32 µg/mL,0.059 µg/mL,> 100 µM,0.13 µg/mL,0.7 µM,,,,,,,,,,
O=C(O)c1cn(C2CC2)c2cc(N3CCNCC3)c(F)cc2c1=O [CIPROFLOXACIN],32 µg/mL,,> 100 µM,0.22 µg/mL,,0.28 µg/mL,0.033 µg/mL,2 µg/mL,0.56 µg/mL,0.56 µg/mL,0.018 µg/mL,0.033 µg/mL,0.28 µg/mL,0.018 µg/mL,
O=c1[nH]sc2c1c(=O)c1cc(F)c(-c3cccc4cnccc34)cc1n2C1CC1,> 64 µg/mL,0.061 µg/mL,45 µM,0.016 µg/mL,23 µM,,,,,,,,,,
COc1ccc(-c2cc3c(cc2F)c(=O)c2c(=O)[nH]sc2n3C2CC2)cn1,16 µg/mL,0.015 µg/mL,> 100 µM,0.023 µg/mL,26 µM,,,,,,,,,,
O=c1[nH]sc2c1c(=O)c1cc(F)c(-c3cccc4cccnc34)cc1n2C1CC1,16 µg/mL,0.75 µg/mL,79 µM,0.13 µg/mL,> 40 µM,,,,,,,,,,
Cc1ccc(-c2cc3c(cc2F)c(=O)c2c(=O)[nH]sc2n3C2CC2)c(C)n1,> 64 µg/mL,0.5 µg/mL,> 100 µM,0.13 µg/mL,8 µM,,,,,,,,,,
O=c1[nH]sc2c1c(=O)c1cc(F)c(-c3ccc4cncnc4c3)cc1n2C1CC1,> 64 µg/mL,4 µg/mL,> 100 µM,0.06 µg/mL,29 µM,,,,,,,,,,
Cc1ccc(-c2cc3c(cc2F)c(=O)c2c(=O)[nH]sc2n3C2CC2)nc1,32 µg/mL,0.12 µg/mL,51 µM,0.044 µg/mL,14 µM,,,,,,,,,,
Cc1cc(-c2cc3c(cc2F)c(=O)c2c(=O)[nH]sc2n3C2CC2)cc(C)n1,0.25 µg/mL,0.031 µg/mL,50 µM,0.0038 µg/mL,48 µM,,,,,,,,,,
O=c1[nH]sc2c1c(=O)c1cc(F)c(-c3ccc4cnccc4c3)cc1n2C1CC1,0.5 µg/mL,0.13 µg/mL,22 µM,0.002 µg/mL,3.6 µM,,,,,,,,,,
COc1ncc(-c2cc3c(cc2F)c(=O)c2c(=O)[nH]sc2n3C2CC2)cn1,8 µg/mL,0.13 µg/mL,43 µM,0.015 µg/mL,3.3 µM,,,,,,,,,,
COc1ccc(-c2cc3c(cc2F)c(=O)c2c(=O)[nH]sc2n3C2CC2)c(OC)n1,8 µg/mL,2 µg/mL,98 µM,0.046 µg/mL,16 µM,,,,,,,,,,
O=c1[nH]sc2c1c(=O)c1cc(F)c(-c3ccccc3)cc1n2C1CC1,16 µg/mL,0.06 µg/mL,> 100 µM,0.0035 µg/mL,6.3 µM,,,,,,,,,,
Cc1cc(-c2cc3c(cc2F)c(=O)c2c(=O)[nH]sc2n3C2CC2)ccn1,0.5 µg/mL,0.059 µg/mL,36 µM,0.004 µg/mL,26 µM,0.04 µg/mL,0.0037 µg/mL,0.25 µg/mL,0.125 µg/mL,0.029 µg/mL,0.015 µg/mL,0.125 µg/mL,1 µg/mL,0.125 µg/mL,2 µg/mL
Cc1ccnc(-c2cc3c(cc2F)c(=O)c2c(=O)[nH]sc2n3C2CC2)c1,32 µg/mL,0.25 µg/mL,> 100 µM,0.06 µg/mL,16 µM,,,,,,,,,,
COc1c(N2C[C@@H]3CCCN[C@@H]3C2)c(F)cc2c(=O)c(C(=O)O)cn(C3CC3)c12 [MOXIFLOXACIN],2 µg/mL,0.013 µg/mL,> 100 µM,0.061 µg/mL,0.8 µM,0.061 µg/mL,0.061 µg/mL,0.125 µg/mL,0.125 µg/mL,0.125 µg/mL,0.013 µg/mL,0.031 µg/mL,0.031 µg/mL,0.061 µg/mL,1 µg/mL
Cc1ncccc1-c1cc2c(cc1F)c(=O)c1c(=O)[nH]sc1n2C1CC1,1 µg/mL,0.51 µg/mL,12 µM,0.13 µg/mL,3.5 µM,,,,,,,,,,
O=c1[nH]sc2c1c(=O)c1cc(F)c(-c3cncc(C4CCCCN4)c3)cc1n2C1CC1 (configuration not stated),8 µg/mL,0.46 µg/mL,6 µM,0.12 µg/mL,5 µM,,,,,,,,,,
O=c1[nH]sc2c1c(=O)c1cc(F)c(-c3ccc4ncccc4c3)cc1n2C1CC1,1 µg/mL,0.13 µg/mL,> 100 µM,0.0032 µg/mL,3.2 µM,,,,,,,,,,
O=c1[nH]sc2c1c(=O)c1cc(F)c(-c3cncnc3)cc1n2C1CC1,8 µg/mL,0.12 µg/mL,18 µM,0.025 µg/mL,3.3 µM,,,,,,,,,,
